# Source: patent publication US20260285875A1, “INHIBITORS OF PARG” (858 Therapeutics, Inc., priority 2023, published 2026)
# Molecular target: T1, cellular PARG (Homo sapiens, UniProt Q86W56)
# T1 construct: endogenous in cells; host or cells: HeLa
# Assay: Nuclear PAR accumulation assay (immunofluorescence high-content imaging, MMS-treated HeLa cells)
# Type: cell-based
# Conditions: 1 hour compound then MMS 50 μg/mL for an additional hour
# How it was run: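 HeLa cells pretreated with compound for 1 h at 37° C, then given 50 μg/mL MMS for another hour. After methanol fixation, PAR was immunostained with DAPI nuclear counterstain; per-nucleus intensity and percent PAR-positive cells were imaged at 20× (≥1,000 cells/well). IC50 from four-parameter logistic fit.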
# T1 sequence (Q86W56 whole entry): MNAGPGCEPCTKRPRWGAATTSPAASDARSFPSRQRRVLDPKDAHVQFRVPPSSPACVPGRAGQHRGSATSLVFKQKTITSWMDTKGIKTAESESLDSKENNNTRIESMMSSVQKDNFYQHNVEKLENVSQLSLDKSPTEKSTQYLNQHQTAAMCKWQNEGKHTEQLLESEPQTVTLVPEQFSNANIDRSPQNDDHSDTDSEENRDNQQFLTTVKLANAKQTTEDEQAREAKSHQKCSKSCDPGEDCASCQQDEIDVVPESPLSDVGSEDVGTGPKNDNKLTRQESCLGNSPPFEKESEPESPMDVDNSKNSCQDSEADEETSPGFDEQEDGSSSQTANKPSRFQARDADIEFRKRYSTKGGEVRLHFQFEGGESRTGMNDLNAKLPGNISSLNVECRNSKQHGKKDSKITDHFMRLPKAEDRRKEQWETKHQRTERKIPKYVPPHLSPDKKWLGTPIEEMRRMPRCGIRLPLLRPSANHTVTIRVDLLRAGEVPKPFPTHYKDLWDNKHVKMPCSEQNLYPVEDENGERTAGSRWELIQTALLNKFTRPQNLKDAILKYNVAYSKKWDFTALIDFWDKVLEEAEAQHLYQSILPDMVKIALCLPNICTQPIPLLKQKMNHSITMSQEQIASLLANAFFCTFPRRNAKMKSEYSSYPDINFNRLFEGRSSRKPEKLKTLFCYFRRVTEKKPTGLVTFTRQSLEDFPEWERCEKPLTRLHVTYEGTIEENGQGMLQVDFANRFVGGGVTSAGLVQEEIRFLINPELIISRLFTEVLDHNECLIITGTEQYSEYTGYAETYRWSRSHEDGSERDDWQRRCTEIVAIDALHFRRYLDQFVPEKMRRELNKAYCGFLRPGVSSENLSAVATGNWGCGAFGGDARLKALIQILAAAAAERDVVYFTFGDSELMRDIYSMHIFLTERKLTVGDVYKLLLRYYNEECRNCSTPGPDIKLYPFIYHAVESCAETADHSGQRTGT
row,Compound,IC50
1,"[2H]C([2H])(c1cnn(C)c1)N1C(=O)c2cc(S(=O)(=O)NC3(C)CC3)ccc2N2C1=NC[C@H]2C#Cc1ncccc1C [Example 242, (R)-4-((1-methyl-1H-pyrazol-4-yl)methyl-d2)-N-(1-methylcyclopropyl)-1-((3-methylpyridin-2-yl)ethynyl)-5-oxo-1,2,4,5-tetrahydroimidazo[1,2-a]quinazoline-7-sulfonamide]",< 100 nM
2,"[2H]C([2H])(c1cnn(C)c1)N1C(=O)c2cc(S(=O)(=O)NC3(C)CC3)c(NCC#Cc3cncnc3)cc2N2C1=N[C@H]1CCC[C@H]12 [Example 287, (7aS,10aR)-6-((1-methyl-1H-pyrazol-4-yl)methyl-d2)-N-(1-methylcyclopropyl)-5-oxo-2-((3-(pyrimidin-5-yl)prop-2-yn-1-yl)amino)-6,7a,8,9,10,10a-hexahydro-5H-cyclopenta[4,5]imidazo[1,2-a]quinazoline-3-sulfonamide]",< 100 nM
3,"C[C@@H]1CN=C2N(Cc3cnn(C)c3)C(=O)c3cc(S(=O)(=O)NC4(C)CC4)cc(N4CC[C@@H](N)C4)c3N21 [Example 71, (R)-9-((R)-3-aminopyrrolidin-1-yl)-1-methyl-4-((1-methyl-1H-pyrazol-4-yl)methyl)-N-(1-methylcyclopropyl)-5-oxo-1,2,4,5-tetrahydroimidazo[1,2-a]quinazoline-7-sulfonamide]",100 to 1000 nM
4,"Cn1cc(CN2C(=O)c3cc(S(=O)(=O)NC4(C)CC4)ccc3N3C2=NC[C@H]3C2CCOCC2)cn1 [Example 44, (R)-4-((1-methyl-1H-pyrazol-4-yl)methyl)-N-(1-methylcyclopropyl)-5-oxo-1-(tetrahydro-2H-pyran-4-yl)-1,2,4,5-tetrahydroimidazo[1,2-a]quinazoline-7-sulfonamide]",100 to 1000 nM
5,"Cn1cc(CN2C(=O)c3cc(S(=O)(=O)NC4(C)CC4)ccc3N3C2=NC[C@H]3C#CC2CNC2)cn1 [Example 89, (R)-1-(azetidin-3-ylethynyl)-4-((1-methyl-1H-pyrazol-4-yl)methyl)-N-(1-methylcyclopropyl)-5-oxo-1,2,4,5-tetrahydroimidazo[1,2-a]quinazoline-7-sulfonamide]",1000 to 10000 nM
6,"C#C[C@@H]1CN=C2N(Cc3cnn(C)c3)C(=O)c3cc(S(=O)(=O)NC4(C)CC4)cc(Br)c3N21 [Example 72, (R)-9-bromo-1-ethynyl-4-((1-methyl-1H-pyrazol-4-yl)methyl)-N-(1-methylcyclopropyl)-5-oxo-1,2,4,5-tetrahydroimidazo[1,2-a]quinazoline-7-sulfonamide]",< 100 nM
7,"[2H]C([2H])(c1cnn(C)c1)N1C(=O)c2cc(S(=O)(=O)NC3(C)CC3)ccc2N2C1=N[C@@H]1C[C@@H](N(C)C)C[C@@H]12 [Example 285, (7aR,9R,10aS)-9-(dimethylamino)-6-((1-methyl-1H-pyrazol-4-yl)methyl-d2)-N-(1-methylcyclopropyl)-5-oxo-6,7a,8,9,10,10a-hexahydro-5H-cyclopenta[4,5]imidazo[1,2-a]quinazoline-3-sulfonamide]",100 to 1000 nM
8,"Cc1noc(C2CC2)c1CN1C(=O)c2cc(S(=O)(=O)NC3(C)CC3)ccc2N2C1=NC[C@H]2C [Example 8, (R)-4-((5-cyclopropyl-3-methylisoxazol-4-yl)methyl)-1-methyl-N-(1-methylcyclopropyl)-5-oxo-1,2,4,5-tetrahydroimidazo[1,2-a]quinazoline-7-sulfonamide]",< 100 nM
9,"[2H]C([2H])(c1cnn(C)c1)N1C(=O)c2cc(S(=O)(=O)NC3(C)CC3)ccc2N2C1=NC[C@H]2CSC [Example 113, (S)-4-((1-methyl-1H-pyrazol-4-yl)methyl-d2)-N-(1-methylcyclopropyl)-1-((methylthio)methyl)-5-oxo-1,2,4,5-tetrahydroimidazo[1,2-a]quinazoline-7-sulfonamide]",< 100 nM
10,"C[C@@H]1CN(c2cc(S(=O)(=O)NC3(C)CC3)cc3c2N2C(=NC[C@H]2C)N(Cc2cnn(C)c2)C3=O)C[C@@H](C)N1 [Example 88, (R)-9-((3R,5R)-3,5-dimethylpiperazin-1-yl)-1-methyl-4-((1-methyl-1H-pyrazol-4-yl)methyl)-N-(1-methylcyclopropyl)-5-oxo-1,2,4,5-tetrahydroimidazo[1,2-a]quinazoline-7-sulfonamide]",< 100 nM
11,"[2H]C([2H])(c1cnn(C)c1)N1C(=O)c2cc(S(=O)(=O)NC3(C)CC3)ccc2N2C1=NC[C@H]2C#Cc1ncc(C)nc1C [Example 251, (R)-1-((3,5-dimethylpyrazin-2-yl)ethynyl)-4-((1-methyl-1H-pyrazol-4-yl)methyl-d2)-N-(1-methylcyclopropyl)-5-oxo-1,2,4,5-tetrahydroimidazo[1,2-a]quinazoline-7-sulfonamide]",< 100 nM
12,"CCN1C(=O)c2cc(S(=O)(=O)NC3(C)CC3)ccc2N2C1=NC[C@H]2C#Cc1cnn(C)n1 [Example 187, (R)-4-ethyl-I-((2-methyl-2H-1,2,3-triazol-4-yl)ethynyl)-N-(1-methylcyclopropyl)-5-oxo-1,2,4,5-tetrahydroimidazo[1,2-a]quinazoline-7-sulfonamide]",< 100 nM
13,"CN1C(=O)c2cc(S(=O)(=O)NC3(C)CC3)ccc2N2C1=NCC2C#Cc1cc2cccnc2[nH]1 (stereo not shown) [Example 169, 1-((1H-pyrrolo[2,3-b]pyridin-2-yl)ethynyl)-4-methyl-N-(1-methylcyclopropyl)-5-oxo-1,2,4,5-tetrahydroimidazo[1,2-a]quinazoline-7-sulfonamide]",100 to 1000 nM
14,"C=Cc1cc(CN2C(=O)c3cc(S(=O)(=O)NC4(C)CC4)ccc3N3C2=NC[C@H]3C)ccn1 [Example 255, (R)-1-methyl-N-(1-methylcyclopropyl)-5-oxo-4-((2-vinylpyridin-4-yl)methyl)-1,2,4,5-tetrahydroimidazo[1,2-a]quinazoline-7-sulfonamide]",< 100 nM
15,"CN1C(=O)c2cc(S(=O)(=O)NC3(C)CC3)ccc2N2C1=NC[C@H]2C#Cc1cnn(C)c1 [Example 130, (R)-4-methyl-1-((1-methyl-1H-pyrazol-4-yl)ethynyl)-N-(1-methylcyclopropyl)-5-oxo-1,2,4,5-tetrahydroimidazo[1,2-a]quinazoline-7-sulfonamide]",< 100 nM
16,"C#CC1(C)CN=C2N(Cc3cnn(C)c3)C(=O)c3cc(S(=O)(=O)NC4(C)CC4)ccc3N21 (single isomer, unassigned) [Example 271, 1-ethynyl-1-methyl-4-((1-methyl-1H-pyrazol-4-yl)methyl)-N-(1-methylcyclopropyl)-5-oxo-1,2,4,5-tetrahydroimidazo[1,2-a]quinazoline-7-sulfonamide]",< 100 nM
17,"Cn1cc(CN2C(=O)c3cc(S(=O)(=O)NC4(C)CC4)ccc3N3C2=NC[C@H]3C(F)F)cn1 [Example 47, (S)-1-(difluoromethyl)-4-((1-methyl-1H-pyrazol-4-yl)methyl)-N-(1-methylcyclopropyl)-5-oxo-1,2,4,5-tetrahydroimidazo[1,2-a]quinazoline-7-sulfonamide]",< 100 nM
18,"Cn1cc(CN2C(=O)c3cc(S(=O)(=O)NC4(C)CC4)ccc3N3C2=NC[C@H]3C#Cc2ncccn2)cn1 [Example 68, (R)-4-((1-methyl-1H-pyrazol-4-yl)methyl)-N-(1-methylcyclopropyl)-5-oxo-1-(pyrimidin-2-ylethynyl)-1,2,4,5-tetrahydroimidazo[1,2-a]quinazoline-7-sulfonamide]",< 100 nM
19,"C[C@@H]1CN=C2N(Cc3cnn(C)c3)C(=O)c3cc(S(=O)(=O)NC4(C)CC4)cc(C4CCN(C)CC4)c3N21 [Example 22, (R)-1-methyl-4-((1-methyl-1H-pyrazol-4-yl)methyl)-N-(1-methylcyclopropyl)-9-(1-methylpiperidin-4-yl)-5-oxo-1,2,4,5-tetrahydroimidazo[1,2-a]quinazoline-7-sulfonamide]",100 to 1000 nM
20,"Cn1cc(CN2C(=O)c3cc(S(=O)(=O)NC4(C)CC4)ccc3N3C2=NC[C@H]3C2CCC(F)(F)CC2)cn1 [Example 45, (R)-1-(4,4-difluorocyclohexyl)-4-((1-methyl-1H-pyrazol-4-yl)methyl)-N-(1-methylcyclopropyl)-5-oxo-1,2,4,5-tetrahydroimidazo[1,2-a]quinazoline-7-sulfonamide]",< 100 nM
21,"C[C@@H]1CN=C2N(CCCO)C(=O)c3cc(S(=O)(=O)NC4(C)CC4)ccc3N21 [Example 64, (R)-4-(3-hydroxypropyl)-1-methyl-N-(1-methylcyclopropyl)-5-oxo-1,2,4,5-tetrahydroimidazo[1,2-a]quinazoline-7-sulfonamide]",1000 to 10000 nM
22,"Cn1cc(CN2C(=O)c3cc(S(=O)(=O)NC4(C)CC4)ccc3N3C2=N[C@H]2CNCC[C@H]23)cn1 [Example 159, (7aS,11aR)-6-((1-methyl-1H-pyrazol-4-yl)methyl)-N-(1-methylcyclopropyl)-5-oxo-5,6,7a,8,9,10,11,11a-octahydropyrido[3′,4′:4,5]imidazo[1,2-a]quinazoline-3-sulfonamide]",1000 to 10000 nM
23,"CN1C(=O)c2cc(S(=O)(=O)NC3(C)CC3)ccc2N2C1=NCC2C#Cc1cnc2cc(C(F)(F)F)cnn12 (stereo not shown) [Example 209, 4-methyl-N-(1-methylcyclopropyl)-5-oxo-1-((7-(trifluoromethyl)imidazo[1,2-b]pyridazin-3-yl)ethynyl)-1,2,4,5-tetrahydroimidazo[1,2-a]quinazoline-7-sulfonamide]",< 100 nM
24,"[2H]C([2H])(c1cnn(C)c1)N1C(=O)c2cc(S(=O)(=O)NC3(C)CC3)ccc2N2C1=NC[C@H]2C#CC1(N(CC)CC)CC1 [Example 241, (R)-1-((1-(diethylamino)cyclopropyl)ethynyl)-4-((1-methyl-1H-pyrazol-4-yl)methyl-d2)-N-(1-methylcyclopropyl)-5-oxo-1,2,4,5-tetrahydroimidazo[1,2-a]quinazoline-7-sulfonamide]",< 100 nM
25,"Cn1cc(CN2C(=O)c3cc(S(=O)(=O)NC4(C)CC4)ccc3N3C2=NC[C@H]3C#Cc2ccn(C)n2)cn1 [Example 65, (R)-1-((1-methyl-1H-pyrazol-3-yl)ethynyl)-4-((1-methyl-1H-pyrazol-4-yl)methyl)-N-(1-methylcyclopropyl)-5-oxo-1,2,4,5-tetrahydroimidazo[1,2-a]quinazoline-7-sulfonamide]",< 100 nM
